The values that follow come from ChEMBL document CHEMBL5226324, “Exploring Translocator Protein (TSPO) Medicinal Chemistry: An Approach for Targeting Radionuclides and Boron Atoms to Mitochondria” (J Med Chem, 2021).

Data set [1] can be described thus: Displacement of [3H]flunitrazepam from CBR receptor in rat brain cortex membrane incubated for 20 mins by liquid scintillation spectrometer method. The format is cell membranes, Cerebral cortex. For orientation: Loss of bound radioactivity is the signal in a displacement assay; it reports binding, not function.
In data set [2] the target is T1, Translocator protein (Homo sapiens, UniProt P30536). As to the kind of experiment: Binding affinity to TSPO receptor (unknown origin).
The target of data set [3] is T2, Translocator protein (Rattus norvegicus, UniProt P16257). Description: Displacement of [3H]PK11195 from TSPO receptor in rat brain cortex membrane incubated for 120 mins by liquid scintillation spectrometer method. Type of data set: cell membranes, Cerebral cortex.
Data set [4] has as its target T1, Translocator protein. As to the kind of experiment: Binding affinity to human TSPO.
In data set [5] the target is T2, Translocator protein. As to the kind of experiment: Displacement of [3H]PK11195 from TSPO receptor in rat brain cortex mitochondrial membrane incubated for 60 mins by liquid scintillation spectrometer method. Type of data set: cell membranes.
The nature of data set [6]: Lipophilicity, log P of the compound at pH 7.4. The format is physicochemical. Particulars: buffer.
Data set [7] deals with T2, Translocator protein. As to the kind of experiment: Displacement of [3H]PK11195 from TSPO receptor in rat brain cortex mitochondrial membrane by liquid scintillation spectrometer method. Type of data set: cell membranes.
The nature of data set [8]: Binding affinity to CBR (unknown origin). Set-up: species or system Homo sapiens.
The nature of data set [9]: Metabolic stability in rat brain assessed as parent compound remaining after 30 mins by radio-HPLC analysis. The format is ADME, tissue-based. The conditions noted are these: read-out: Stability.

Broadly, the pIC50 is −log10 of the IC50, conventionally taken in molar units. In general, pKi refers to −log10 of the Ki, conventionally taken in molar units. A high value points to a small Ki. By pKd is commonly meant −log10 of the Kd, conventionally taken in molar units. Read a low pKd as a large Kd. Broadly, the logD is the decadic logarithm of the distribution of all forms, ionised or not, between an organic phase and buffer at a given pH. Low values mean lower lipophilicity, high ones higher lipophilicity.

The structures appear in SMILES notation. pIC50, pKd, pKi: −log10 of the molar value.

T1 sequence (P30536 whole entry): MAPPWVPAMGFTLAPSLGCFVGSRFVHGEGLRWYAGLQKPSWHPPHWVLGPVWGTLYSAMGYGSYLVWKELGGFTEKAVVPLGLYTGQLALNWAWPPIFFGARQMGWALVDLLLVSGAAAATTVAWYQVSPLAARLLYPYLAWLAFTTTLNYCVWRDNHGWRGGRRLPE
T2 sequence (P16257 whole entry, looked up): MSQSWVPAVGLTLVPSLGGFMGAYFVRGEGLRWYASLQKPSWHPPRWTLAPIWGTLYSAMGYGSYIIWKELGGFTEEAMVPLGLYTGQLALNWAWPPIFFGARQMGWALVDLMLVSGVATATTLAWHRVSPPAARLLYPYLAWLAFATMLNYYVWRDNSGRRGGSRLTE

Take `CCCN(CCC)C(=O)/C=C1\c2nc3ccccc3cc2C(=O)N1c1ccc(Cl)cc1`: the pIC50 in data set [1] (read-out: IC50) was less than 6.00.

On to `CCCCCCN(CCCCCC)C(=O)CC1c2ncccc2C(=O)N1c1ccc(Cl)cc1` (stereo not given), for which the pIC50 in data set [1] (read-out: IC50) is less than 6.00.

Regarding `CCCN(CCC)C(=O)/C=C1\c2ncccc2C(=O)N1c1ccc(Cl)cc1`, the pIC50 in data set [1] (read-out: IC50) is less than 6.00.

Regarding `CCCCCCN(CCCCCC)C(=O)/C=C1\c2ncccc2C(=O)N1c1ccc(Cl)cc1`, the pIC50 in data set [1] (read-out: IC50) was less than 6.00.

Take `CCN(CC)C(=O)[C@H]1CCCc2c1c1c(OC)cccc1n2CC[18F]`: at Translocator protein [2], the pKi is 8.62.

`CCCCCCN(CCCCCC)C(=O)/C=C1\c2nc3ccccc3cc2C(=O)N1c1ccc(Cl)cc1`: in [1] (read-out: IC50), the pIC50 was less than 6.00.

Consider `CCCCCCN(CCCCCC)C(=O)CC1c2nc3ccccc3cc2C(=O)N1c1ccc(Cl)cc1` (stereo not given), for which the pIC50 in [1] (read-out: IC50) is less than 6.00.

In the case of `O=C1c2cccnc2CN1c1ccc(Cl)cc1`, the pIC50 in data set [1] (read-out: IC50) is less than 6.00.

As to `CCCN(CCC)C(=O)CC1c2ncccc2C(=O)N1c1ccc(Cl)cc1` (stereo not given), the pIC50 in data set [1] (read-out: IC50) is 6.07.

Turning to `CCCCN1Cc2c(nc3ccccc3c2-c2ccccc2)C1=O`, the pIC50 on Translocator protein [3] was less than 5.00.

For the compound `CN(Cc1ccccc1)C(=O)c1nc2ccccc2c2c1CCOc1ccccc1-2`, the pIC50 on Translocator protein [3] is 8.00.

`CCC(C)N(C)C(=O)c1cc2ccccc2c(-c2ccccc2[123I])n1` (stereo not given) showed a pKd on Translocator protein [4] of 8.00.

Regarding `CCN(CC)C(=O)Cc1c(-c2ccc([123I])cc2)nc2ccc(Cl)cn12`, on Translocator protein [5], the pKd is 8.42.

Consider `CCCN(CCC)C(=O)CC1c2nc3ccccc3cc2C(=O)N1c1ccccc1` (stereo not given), for which the pIC50 (in [1] (read-out: IC50); at Translocator protein [3]) was less than 6.00 throughout.

For the compound `CCCCN1Cc2c(nc3ccccc3c2-c2ccccc2F)C1=O`, on Translocator protein [3], the pIC50 is less than 5.00.

`CC(=O)N(Cc1ccccc1OCC[18F])c1cnccc1Oc1ccccc1` had a pH-dependent lipophilicity (logD) in data set [6] of 2.99. Besides, the pKi at Translocator protein [7] is 10.15.

Turning to `CCCN(CCC)C(=O)Cc1c(-c2ccc(Cl)cc2)[nH]c2ccc(Cl)cc12`, in data set [1] (read-out: IC50), the pIC50 is less than 6.00.

On to `CCCN(CCC)C(=O)Cc1c(-c2ccc(Cl)cc2)nc2ccc(Cl)cn12` [ALPIDEM], for which, in data set [8], the pKi was 9.00. The negative-log IC50 (pIC50) in data set [1] (read-out: IC50) was 9.00; on Translocator protein [3], 9.30.

As to `CN1C(=O)CN=C(c2ccccc2)c2cc(Cl)ccc21` [DIAZEPAM], the pIC50 in [1] was 8.25.

For the compound `CCN(CC)C(=O)Cc1c(-c2ccc(OCCF)cc2)nn2c(C)cc(C)nc12` [DPA-714], in [9], the remaining at 0.5 h is less than 3%.

In turn, `CN1C(=O)CN=C(c2ccc(Cl)cc2)c2cc(Cl)ccc21` [RO-54864] gave a pKd at Translocator protein [2] of 8.96.
